Key:
Assay in all cases: Uptake of SA-HRP::MBD peptide complexes
435 = type: cell-based
Description: (§1) HEK293 kidney cell line and 54 tumor cell lines obtained from the National Cancer Institute and passaged in RPMI1640 cell culture medium supplemented with 10% fetal bovine serum and 10 uM FeCl2. Uptake of streptavidin-horseradish peroxidase (SA-HRP) conjugate and of various SA-HRP::MBD peptide complexes was determined as described (Singh et al. J Biol Chem. 279 (1):477-87 [2004]) using biotinylated MBD9 ([…]) (SEQ ID NO: 10) and MBD21 ([…]) (SEQ ID NO: 4) peptides and SA-HRP. Nuclear and cytoplasmic localization of these proteins was also determined in each case. […] In order to establish the underlying molecular mechanism for this variability, we cross-linked MBD21 peptide to the following cell surface markers at 4 degrees Celsius as previously described (Singh et al. J Biol Chem. 279 (1):477-87 [2004]): transferrin receptor 1, caveolin 1, PCNA, integrins alpha v, 2, 5 and 6, integrins beta 1, 3 and 5. […] Based on the strength of these correlations, it was possible to derive crude predictive formulae for MBD-mediated uptake based on the rate of cross-linking to surface markers. Such predictive formulas could form the basis for a diagnostic procedure to select appropriate targets for MBD-based therapies.

CCRF-SB = type: cell-based
Description: as §1

SR = type: cell-based
Description: as §1

COLON 26 = type: cell-based
Description: as §1

PAN 02 = type: cell-based
Description: as §1

K562 = type: cell-based
Description: as §1

HEK 293 = type: cell-based
Description: as §1

IGR-OV1 = type: cell-based, human
Description: as §1

A2780 = type: cell-based, human
Description: as §1

OVCAR-3 = type: cell-based, human
Description: as §1

PC-3 = type: cell-based, human
Description: as §1

HOP 62 = type: cell-based, human
Description: as §1

SHP-77 = type: cell-based, human
Description: as §1

OVCAR-8 = type: cell-based, human
Description: as §1

NCI-H23 = type: cell-based, human
Description: as §1

CCRF-CEM = type: cell-based, human
Description: as §1

231 = type: cell-based, human
Description: as §1

NCI-H460 = type: cell-based, human
Description: as §1

HS-578T = type: cell-based, human
Description: as §1

HCC 2998 = type: cell-based, human
Description: as §1

A704 = type: cell-based, human
Description: as §1

HT-29 = type: cell-based, human
Description: as §1

HCT-116 = type: cell-based, human
Description: as §1

LOVO = type: cell-based, human
Description: as §1

## KKGFYKKKKQCRPSKGRKRGFCWNGRK [MBD9]
435; 435, cytoplasmic
  SA-HRP uptake, Cyt.: 8.6 ng
435; 435, nuclear
  SA-HRP uptake, Nuc.: 2.7 ng
CCRF-SB; cytoplasmic
  SA-HRP uptake, Cyt.: 2.6 ng
CCRF-SB; nuclear
  SA-HRP uptake, Nuc.: 0.6 ng
SR; cytoplasmic
  SA-HRP uptake, Cyt.: 24.4 ng
SR; nuclear
  SA-HRP uptake, Nuc.: 0.0 ng
COLON 26; COLON 26, cytoplasmic
  SA-HRP uptake, Cyt.: 11.3 ng
COLON 26; COLON 26, nuclear
  SA-HRP uptake, Nuc.: 2.3 ng
PAN 02; PAN 02, cytoplasmic
  SA-HRP uptake, Cyt.: 25.8 ng
PAN 02; PAN 02, nuclear
  SA-HRP uptake, Nuc.: 7.0 ng
K562; K562, cytoplasmic
  SA-HRP uptake, Cyt.: 2.6 ng
K562; K562, nuclear
  SA-HRP uptake, Nuc.: 1.3 ng
HEK 293; HEK 293, cytoplasmic
  SA-HRP uptake, Cyt.: 20.2 ng
HEK 293; HEK 293, nuclear
  SA-HRP uptake, Nuc.: 20.1 ng
IGR-OV1; IGR-OV1, cytoplasmic
  SA-HRP uptake, Cyt.: 7.0 ng
IGR-OV1; IGR-OV1, nuclear
  SA-HRP uptake, Nuc.: 2.6 ng
A2780; A2780, cytoplasmic
  SA-HRP uptake, Cyt.: 20.7 ng
A2780; A2780, nuclear
  SA-HRP uptake, Nuc.: 2.8 ng
OVCAR-3; OVCAR-3, cytoplasmic
  SA-HRP uptake, Cyt.: 2.4 ng
OVCAR-3; OVCAR-3, nuclear
  SA-HRP uptake, Nuc.: 4.6 ng
PC-3; PC-3, cytoplasmic
  SA-HRP uptake, Cyt.: 23.2 ng
PC-3; PC-3, nuclear
  SA-HRP uptake, Nuc.: 8.5 ng
HOP 62; HOP 62, cytoplasmic
  SA-HRP uptake, Cyt.: 12.0 ng
HOP 62; HOP 62, nuclear
  SA-HRP uptake, Nuc.: 0.9 ng
SHP-77; SHP-77, cytoplasmic
  SA-HRP uptake, Cyt.: 12.8 ng
SHP-77; SHP-77, nuclear
  SA-HRP uptake, Nuc.: 5.9 ng
OVCAR-8; OVCAR-8, cytoplasmic
  SA-HRP uptake, Cyt.: 3.9 ng
OVCAR-8; OVCAR-8, nuclear
  SA-HRP uptake, Nuc.: 5.0 ng
NCI-H23; NCI-H23, cytoplasmic
  SA-HRP uptake, Cyt.: 10.8 ng
NCI-H23; NCI-H23, nuclear
  SA-HRP uptake, Nuc.: 6.6 ng
CCRF-CEM; cytoplasmic
  SA-HRP uptake, Cyt.: 46.2 ng
CCRF-CEM; nuclear
  SA-HRP uptake, Nuc.: 1.8 ng
231; 231, cytoplasmic
  SA-HRP uptake, Cyt.: 9.6 ng
231; 231, nuclear
  SA-HRP uptake, Nuc.: 2.6 ng
NCI-H460; NCI-H460, cytoplasmic
  SA-HRP uptake, Cyt.: 30.3 ng
NCI-H460; NCI-H460, nuclear
  SA-HRP uptake, Nuc.: 5.6 ng
HS-578T; cytoplasmic
  SA-HRP uptake, Cyt.: 6.8 ng
HS-578T; nuclear
  SA-HRP uptake, Nuc.: 2.3 ng
HCC 2998; HCC 2998, cytoplasmic
  SA-HRP uptake, Cyt.: 4.6 ng
HCC 2998; HCC 2998, nuclear
  SA-HRP uptake, Nuc.: 3.7 ng
A704; A704, cytoplasmic
  SA-HRP uptake, Cyt.: 10.9 ng
A704; A704, nuclear
  SA-HRP uptake, Nuc.: 1.8 ng
HT-29; HT-29, cytoplasmic
  SA-HRP uptake, Cyt.: 6.1 ng
HT-29; HT-29, nuclear
  SA-HRP uptake, Nuc.: 7.7 ng
HCT-116; HCT-116, cytoplasmic
  SA-HRP uptake, Cyt.: 14.1 ng
HCT-116; HCT-116, nuclear
  SA-HRP uptake, Nuc.: 4.4 ng
LOVO; cytoplasmic
  SA-HRP uptake, Cyt.: 12.6 ng
LOVO; nuclear
  SA-HRP uptake, Nuc.: 5.4 ng
